Experimental data from patent publication US20250090576A1, “METHODS FOR TREATING NONTUBERCULOUS MYCOBACTERIA DISEASES” (Microbion Corporation, priority 2022, published 2025).
In brackets after ≈: the same amount, converted by molar mass. Read-outs that look alike come from different tables or passages of the source.

What was measured:
[1] = system: CF patient strain DNA00703; experiment: MIC broth dilution, growth by turbidity/OD 595 nm; assay type: cell-based, M. abscessus; conditions: for MIC: Mycobacteroides abscessus
Experimental: (§1) Mycobacteria strains were used to determine MICs of BisEDT and amikacin. Strains included cystic fibrosis patient isolates from National Jewish Hospital. A range of high dose to low dose of antibiotics was used to determine bacteria susceptibility. M. avium strain 104, M. avium strain 3388, and CF patient strain DNA00133 were grown to log phase (7 days) while M. abscessus strain 19977, CF patient strain DNA00703, and CF patient strain DNA01715 achieved log phase (4 days) on 7H10 middlebrook media plates supplemented with 10% OADC (Oleic acid, Albumin, Dextrose, Catalase). […] For BisEDT, two types of compound physical states were tested. First, BisEDT was solubilized in DMSO (furthermore labeled soluble BisEDT). Second, BisEDT was made in suspension to mimic in vivo studies (furthermore labeled insoluble BisEDT). […] Control tubes containing no antibiotics were also included for each antibiotic tested. Inoculums of […] bacteria for each strain was measured with optical density (O.D.) at 595 nm. 10 μl of these inoculums were added to each antibiotic tube and incubated in a shaking incubator at 37° C. and 200 rpm. Slow growing stains were measured for growth after 10 days incubation while fast growing strains were incubated for 5 days. After incubation, 100 μl from each tube was pulled and placed in a 96-well plate for O.D. reading. Turbidity determined sensitive, intermediate, or resistant bacteria.

[2] = system: CF patient strain DNA01715; experiment: MIC broth dilution, growth by turbidity/OD 595 nm; assay type: cell-based, M. abscessus; conditions: for MIC: Mycobacteroides abscessus
Experimental: as §1

[3] = system: M. abscessus cystic fibrosis patient strain 00703 in THP-1 macrophages; experiment: Mycobacterial survival (CFU) in infected THP-1 macrophages; assay type: cell-based; conditions: CF patient strain 00703; after 3 days; drugs at MIC
Experimental: (§2) THP-1 macrophages were differentiated with 50 ng/ml PMA for 24 hours, followed by 24 hours in media prior to infection. Differentiated THP-1 macrophages were either infected with M. avium strains or M. abscessus strains for 1 hour with an multiplicity of infection (MOI) of 5 or uninfected. Cells were washed twice, followed by 1 hour of antibiotic treatment with 200 μg/ml of amikacin to remove extracellular bacteria. After the antibiotic step, cells were washed once more and BisEDT (BIZ) or amikacin was added once to selected wells (see in vitro doses below).
(§3) The treatments included: vehicle, amikacin, Soluble BisEDT (S Biz), Insoluble BisEDT (I Biz), and amikacin+BisEDT. The time points for sample preparation were 72 h for M. abscessus strains and 4- and 7-days post infection for M. avium strains. At the indicated timepoints cell media was removed and replaced with 400 ul of 0.1% triton x-100 in H2O for lysis. Wells were pipetted 25 times to disrupt cells then diluted and plated for CFU enumeration.

[4] = system: M. abscessus cystic fibrosis patient strain 01715 in THP-1 macrophages; experiment: as above; assay type: cell-based; conditions: CF patient strain 01715; after 3 days; drugs at MIC
Experimental: as §2, §3

[5] = system: M. abscessus strain 19977 in THP-1 macrophages; experiment: as above; assay type: cell-based; conditions: after 3 days, drugs at MIC
Experimental: as §2, §3

[6] = system: M. avium strain 104 (MAH 104) in THP-1 macrophages; experiment: as above; assay type: cell-based; conditions: 4-day and 7-day, drugs at MIC
Experimental: as §2, §3

M. abscessus MABS7 = experiment: MIC (Table 8); assay type: cell-based; conditions: Mycobacteroides abscessus
[7] = system: M. abscessus biofilm (six clinical isolates); experiment: MBEC assay, summary over six clinical isolates; assay type: cell-based; conditions: at high concentrations (amikacin, clarithromycin: apart from MABS4)
Excerpt: In this study the MBEC assay was followed as described in the Innovotech Procedural Manual, version 2.1 with minor modifications to assess the antibiofilm activity of the antimicrobial compounds under investigation. The MBEC value refers to the Minimum Biofilm Eradication Concentration of each antimicrobial for each strain. The MBEC value is defined as the minimum antibiotic concentration where the optical density (OD) value at recovery is less than 10% of the control OD value and there is no growth observed with visual examination of the wells.
Step 1: Inoculation. For resuscitation, all strains were streaked on TSA plates, except for the mycobacteria which were streaked on 7H10 media, from the frozen stocks, and grew overnight at 37° C. (Table 6). From the plate, one colony was picked for inoculation in organism specific medium (OSM) and grown in a shaker incubator at 37° C. at 225 RPM until mid-log phase (OD 0.2-0.8). At mid log phase the culture was diluted in OSM medium (Table 6) to an OD of 0.05. 150 μL of it were aliquoted in each corresponding well in a 96-well MBEC plate (inoculation plate). Subsequently, the MBEC plates were incubated static at 37° C. for the appropriate time for each species (Table 7). During incubation, biofilm formed on the pegs.
Step 2: Challenge. Following incubation, the peg lid with the biofilm was washed twice in PBS and placed on a second 96-well plate with 200 μl of antibiotic dilutions (challenge plate). The challenge plate was then incubated at 37° C. for 18 h to allow exposure of the biofilm to antibiotics.
Step 3: Recovery. […] The recovery of resistant cells was assessed by an end-point measurement of the optical density at 600 nm (OD600) for each well with a plate reader (FIG. 4).
This is possibly, in part, due to the variable clumping of the cells observed in the biofilm biomass on the pegs. The clumping of the cells also impacted the OD readings. […] For replicate experiments with variable results, the final MBEC values were determined based on the higher MBEC concentration observed among the replicates.

NCC[C@H](O)C(=O)N[C@@H]1C[C@H](N)[C@@H](O[C@H]2O[C@H](CN)[C@@H](O)[C@H](O)[C@H]2O)[C@H](O)[C@H]1O[C@H]1O[C@H](CO)[C@@H](O)[C@H](N)[C@H]1O [amikacin]
Sensitivity phenotype (R/I/S) ([1]; 1 μg/mL): R | Sensitivity phenotype (R/I/S) ([1]; 2 μg/mL): R | Sensitivity phenotype (R/I/S) ([1]; 4 μg/mL): R | Sensitivity phenotype (R/I/S) ([1]; 8 μg/mL): R | Sensitivity phenotype (R/I/S) ([1]; 16 μg/mL): I | Sensitivity phenotype (R/I/S) ([1]; 32 μg/mL): I | Sensitivity phenotype (R/I/S) ([1]; 64 μg/mL): S | Sensitivity phenotype (R/I/S) ([1]; 128 μg/mL): S | MIC ([1]; M. abscessus strain 00703 (Table 4), read-out: MIC determined for the strain, used for treatment of infected macrophages): 64 µg/mL (≈ 109 µM) | MIC ([1]; M. abscessus strain from patient 00703, read-out: MIC): 64 µg/mL (≈ 109 µM) | Sensitivity phenotype (R/I/S) ([2]; 1 μg/mL): R | Sensitivity phenotype (R/I/S) ([2]; 2 μg/mL): R | Sensitivity phenotype (R/I/S) ([2]; 4 μg/mL): R | Sensitivity phenotype (R/I/S) ([2]; 8 μg/mL): I | Sensitivity phenotype (R/I/S) ([2]; 16 μg/mL): S | Sensitivity phenotype (R/I/S) ([2]; 32 μg/mL): S | Sensitivity phenotype (R/I/S) ([2]; 64 μg/mL): S | Sensitivity phenotype (R/I/S) ([2]; 128 μg/mL): S | MIC ([2]; M. abscessus strain 01715 (Table 4), read-out: MIC determined for the strain, used for treatment of infected macrophages): 16 µg/mL (≈ 27.3 µM) | MIC ([2]; M. abscessus strain from patient 01715, read-out: MIC): 16 µg/mL (≈ 27.3 µM) | mycobacterial survival (CFU, bacterial load) in THP-1 macrophages, in words [3]: bacteriostatic | mycobacterial survival (CFU, bacterial load) in THP-1 macrophages, in words [4]: bacteriostatic | mycobacterial survival (CFU, bacterial load) in THP-1 macrophages, in words [5]: somewhat reduced CFU counts from initial infection rates, but the difference was not significant | mycobacterial survival (CFU, bacterial load) in THP-1 macrophages, in words [6]: greatly reduced the bacteria load | MIC (M. abscessus MABS7): 2 µg/mL (≈ 3.42 µM) | biofilm susceptibility, in words [7]: resistance
